Laboratory results: patent publication US12622918B2, “Formulations and dosages for administering a compound that inhibits MCL1 protein” (Amgen Inc., priority 2019, dated 2026)

Tests used:
[1] = system: TF-1; assay: Cell viability (CellTiterGlo), TF-1; type: cell-based; conditions: Homo sapiens; TF-1, AML; 24 hours; 10% FBS; read-out: AMS 176 IC50
[2] = system: OPM2-Luc tumor xenografts; assay: OPM2-Luc xenograft efficacy, once daily dosing; type: in vivo, mice; conditions: for animals tumor free: day 24
Protocol: OPM2-Luc cells (5×10^6) were implanted subcutaneously into female athymic nude mice. […] Three of 10 animals in the 30 mg/kg group and 10 of 10 animals in the 60 mg/kg group were tumor free on day 24.

[3] = system: KMS-12-BM; assay: Cell viability (CellTiterGlo), KMS-12-BM; type: cell-based; conditions: Homo sapiens, Multiple myeloma, 24 hours, 10% FBS, read-out: AMS 176 IC50
[4] = target: T1, MCL1-BAK protein-protein interaction (Homo sapiens, UniProt Q07820); assay: MCL1-BAK protein-protein interaction PD assay, HEK 293M MCL1(1-327)-Luc/BAK-Luc Matrigel plug model in mice; type: in vivo; conditions: for inhibition of MCL1-BAK protein-protein interaction, as measured by luciferase activity: 2-, vs vehicle p<0.0025, female athymic nude mice
T1 construct: human MCL1 encoding amino acids 1-327 and full-length human BAK; expressed in transfected cells; host or cells: HEK 293M cells, stably transfected, in Matrigel plugs in female athymic nude mice
From the text: The inhibition of MCL1-BAK protein-protein interaction was used as a pharmacodynamics (PD) assay in HEK 293M cells stably transfected so as to express the N-terminal fragment of human MCL1 encoding amino acids 1-327 and full-length human BAK, linked to the N- and C-terminal fragments of firefly luciferase, respectively (interaction between MCL1 [1-327] and BAK results in the complementation of the C- and N-terminal fragments of luciferase and the formation of active luciferase).

[5] = system: rat; assay: 28-day GLP rat IV infusion toxicology study; type: in vivo
From the text: The doses selected for the 28-day IV rat and dog toxicology studies were intended to characterize the toxicity of the compound of Formula I and provide data to support a starting dose in the first-in-human (FIH) study. An IV route of administration and a dosing schedule of 2 days on/5 days off was used to support the anticipated clinical route and dosing schedule.

[6] = system: U937; assay: Cell viability (CellTiterGlo), U937; type: cell-based; conditions: Homo sapiens, U-937; U937, NHL; 24 hours; 10% FBS; read-out: AMS 176 IC50
[7] = system: subjects with relapsed/refractory multiple myeloma; assay: Phase 1 FIH study, multiple myeloma part 1b (QW); type: in vivo, human
Protocol: In part 1a, subjects were enrolled across 8 cohorts, with doses ranging from 30 to 240 mg/m^2 QD2. In part 1b, subjects were enrolled across 2 cohorts, with doses of 120/180-mg/m^2 or 120/240-mg/m^2.

[8] = system: HEL 92.1.7; assay: Cell viability (CellTiterGlo), HEL 92.1.7; type: cell-based; conditions: Homo sapiens; HEL 92.1.7, AML; 24 hours; 10% FBS; read-out: AMS 176 IC50
[9] = system: U26681; assay: Cell viability (CellTiterGlo), U26681; type: cell-based; conditions: U26681, Multiple myeloma; 24 hours; 10% FBS; read-out: AMS 176 IC50
[10] = system: KMS-12-PE; assay: Cell viability (CellTiterGlo), KMS-12-PE; type: cell-based; conditions: Homo sapiens, Multiple myeloma, 24 hours, 10% FBS, read-out: AMS 176 IC50
[11] = system: Ramos; assay: Cell viability (CellTiterGlo), Ramos; type: cell-based; conditions: Homo sapiens, NHL, 24 hours, 10% FBS, read-out: AMS 176 IC50
[12] = system: SU-OHL-6; assay: Cell viability (CellTiterGlo), SU-OHL-6; type: cell-based; conditions: SU-OHL-6, NHL; 24 hours; 10% FBS; read-out: AMS 176 IC50
[13] = From the text: Nonclinical safety studies on the compound of Formula I consisted of an exploratory 14-day dog IV toxicology study, Good Laboratory Practices (GLP) 28-day rat and dog IV toxicology studies, in vitro exploratory genotoxicity studies (GLP human ether-á-go-go related gene [hERG] and non-GLP isolated rabbit heart) to characterize potential cardiovascular effects. The doses selected for the 28-day IV rat and dog toxicology studies were intended to characterize the toxicity of the compound of Formula I and provide data to support a starting dose in the first-in-human (FIH) study. An IV route of administration and a dosing schedule of 2 days on/5 days off was used to support the anticipated clinical route and dosing schedule. In a 28-day GLP rat IV infusion toxicology study, the severely toxic dose in 10% of animals (STD10) was 60 mg/kg based on mortality at 120 mg/kg and in a 28-day GLP IV toxicology study in dogs, the highest-nonseverely-toxic dose (HNSTD) was 10 mg/kg based on mortality at 20 mg/kg.
[14] = system: Molm13-Luc orthotopic tumors; assay: MOLM-13 Luc acute myeloid leukemia orthotopic model; type: in vivo; conditions: for TGI (tumor burden, whole body luminescence): female NSG mice
Protocol: On day 0, 70 female NSG mice were injected IV with 5×10^4 human Molm13-Luc AML tumor cells.

[15] = Plasma concentration in OPM2-Luc tumor-bearing mice; type: in vivo; conditions: 60 mg/kg oral gavage; female athymic nude mice
Protocol: Activation of the pro-apoptotic pore-forming protein BAK and proteolytic cleavage of the cysteine-aspartic acid protease caspase 3 (hallmarks of the induction of apoptosis) in MCL1-dependent OPM2-Luc multiple myeloma tumor cells served as a PD assay. Female athymic nude mice were injected with 5×10^6 cells in 0.1 mL subcutaneously (SC). […] Mice were euthanized 2, 4, 8, 12, and 24 hours postdose (n=3/group), terminal plasma samples were collected for PK analysis, and tumors were halved and snap frozen in liquid nitrogen for PK and molecular analyses. Tumor lysates were prepared for evaluation of BAK activation and caspase 3 cleavage using an electrochemiluminescence immunoassay. Tumors treated with vehicle (25% HPβCD, pH 8) served as a negative control and indicated the baseline level of apoptosis.

T1 sequence (Q07820 1-327): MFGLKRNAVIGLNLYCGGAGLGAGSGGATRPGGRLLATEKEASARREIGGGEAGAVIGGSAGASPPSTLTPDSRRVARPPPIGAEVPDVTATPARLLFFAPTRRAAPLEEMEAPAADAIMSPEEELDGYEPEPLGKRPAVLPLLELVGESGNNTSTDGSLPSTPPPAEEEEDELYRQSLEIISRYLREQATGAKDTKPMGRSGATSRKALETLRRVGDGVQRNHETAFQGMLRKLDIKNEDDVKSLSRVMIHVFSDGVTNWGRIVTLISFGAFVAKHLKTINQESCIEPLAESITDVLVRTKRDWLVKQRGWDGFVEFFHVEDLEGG

SMILES: CO[C@H]1/C=C/C[C@H](C)[C@@H](C)S(=O)(=O)NC(=O)c2ccc3c(c2)N(C[C@@H]2CC[C@H]21)C[C@@]1(CCCc2cc(Cl)ccc21)CO3 [AMG 176]
- IC50 [1]: 2090 nM
- TGI ([2]; 20 mg/kg once daily oral gavage, p<0.001): 63%
- effect on established OPM2-Luc tumors ([2]; 30 mg/kg and 60 mg/kg orally once daily, summary statement): tumor regression
- tumor regression ([2]; 30 mg/kg once daily oral gavage, p<0.001): 50%
- animals tumor free ([2]; 30 mg/kg once daily): Three of 10
- tumor regression ([2]; 60 mg/kg once daily oral gavage, p<0.0001): 100%
- animals tumor free ([2]; 60 mg/kg once daily): 10 of 10
- changes in body weight and body score assessment ([2]; 10-60 mg/kg once daily oral gavage): no evidence of AMG 176-related changes
- IC50 [3]: 15 nM
- inhibition of MCL1-BAK protein-protein interaction, as measured by luciferase activity ([4]; 3 mg/kg, 8-, 12-, and 24-hour time points): Statistically significant inhibition
- inhibition of MCL1-BAK protein-protein interaction, as measured by luciferase activity ([4]; 10 mg/kg, 4-, 8-, and 12-hour time points): Statistically significant inhibition
- inhibition of MCL1-BAK protein-protein interaction, as measured by luciferase activity ([4]; 30 mg/kg, 4-, 8-, 12-, and 24-hour time points): Statistically significant inhibition
- inhibition of the interaction between human MCL1 and human BAK in vivo ([4]; summary statement): dose-dependent inhibition
- finding related to morbidity and mortality [5]: mucosal epithelial degeneration in the small and large intestines
- dose with mortality ([5]; IV infusion, 28-day): 120 mg/kg
- severely toxic dose in 10% of animals (STD10) ([5]; IV infusion, 2 days on/5 days off, 28-day): 60 mg/kg
- IC50 [6]: 474 nM
- Grade 3 adverse events, subjects ([7]; MM part 1b): 83%
- adverse events considered related to AMG 176, subjects ([7]; MM part 1b): 83 %/a
- adverse events leading to discontinuation of investigational product ([7]; MM part 1b): no adverse event led to discontinuation
- fatal adverse events ([7]; MM part 1b): no fatal adverse events occurred
- grade 4 adverse events, subjects ([7]; MM part 1b): 17%
- hypertension of grade 3 or higher ([7]; MM part 1b): 33%
- neutropenia of grade 3 or higher ([7]; MM part 1b): 67%
- serious adverse events ([7]; MM part 1b): No serious adverse events were reported
- adverse events, subjects ([7]; MM part 1b QW, 6 subjects): 83%
- diarrhea, subjects ([7]; MM part 1b, any grade): 33%
- fatigue, subjects ([7]; MM part 1b, any grade): 33%
- hypertension, subjects ([7]; MM part 1b, any grade): 33%
- nausea, subjects ([7]; MM part 1b, any grade): 50%
- neutropenia, subjects ([7]; MM part 1b, any grade): 67%
- exposures (Cmax and AUC) versus dose ([7]; MM part 1b, 6 subjects, preliminary): generally increased with increasing doses
- IC50 [8]: 5990 nM
- IC50 [9]: 8220 nM
- IC50 [10]: 131 nM
- IC50 [11]: 34 nM
- IC50 [12]: 165 nM
- genotoxicity [13]: not mutagenic or clastogenic
- TGI (tumor burden, whole body luminescence) ([14]; 30 mg/kg oral QD2): 28%
- TGI (tumor burden, whole body luminescence) ([14]; 60 mg/kg oral QD2): 69%
- TGI (tumor burden, whole body luminescence) ([14]; 100 mg/kg oral QD): 86%
- overt toxicity by changes in body weight ([14]; all AMG 176 groups): No evidence of overt toxicity
- time point of peak AMG 176 plasma concentration [15]: 4 h
